Among the test systems are A549; ACHN; COLO 205; DU-145; KM12; MDA-MB-231; MDA-MB-435; MOLT-4; NCI-H226; NCI-H23; OVCAR-5; OVCAR-8; SF-268; SF-539; SK-MEL-28; SK-MEL-2; SN12C; SNB-19; U-251.
Holding throughout (experiment): NCI tumour cell line growth inhibition, 48 h

Molecules are shown by their SMILES.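 Briefly, cells in 96-well plates were exposed to five compound concentrations for 48 h, and endpoints were estimated by linear interpolation. At the GI50, growth is halved.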 Calls of active or inactive are those of the source. Rule as the data show it: active = GI50 up to about 1.1 µM and inactive = higher. Bounds are passed on as bounds.

`O=C(O)[C@H]1NC[C@H]2C(Br)=NO[C@@H]12`: the GI50 in the assay with A549, in the assay with ACHN, with COLO 205, in the assay on DU-145, in the assay on KM12 and in the assay on MDA-MB-231 was > 100 µM (inactive) each time. For the same compound, the GI50 with MDA-MB-435, in the assay on MOLT-4, with NCI-H226, with NCI-H23, in the assay with OVCAR-5 and with OVCAR-8 was > 100 µM (inactive) in each case. The GI50 with SF-268, in the assay with SF-539, in the assay with SK-MEL-28, in the assay on SK-MEL-2, with SN12C and in the assay with SNB-19 was > 100 µM (inactive) each time. For the same compound, in the assay with U-251, the GI50 is > 100 µM (inactive).
For the compound `O=C1CCCC1CN1CCCC1` (centres undefined), the GI50 in the assay with A549 was > 75.5 µM (inactive); in the assay on ACHN it was 6.08 µM (inactive); in the assay on COLO 205, 3.78 µM (inactive); in the assay with DU-145, 30.5 µM (inactive); in the assay with KM12 it was 16.1 µM (inactive); in the assay with MDA-MB-231 it was 15.5 µM (inactive). The GI50 was 13.1 µM (inactive) with MDA-MB-435; 0.206 µM (active) in the assay with MOLT-4; 46.2 µM (inactive) in the assay with NCI-H226; 15.3 µM (inactive) with NCI-H23; 18.3 µM (inactive) in the assay on OVCAR-5; 17.3 µM (inactive) in the assay with OVCAR-8. Besides, the GI50 was 21.6 µM (inactive) in the assay on SF-268; 18.8 µM (inactive) in the assay on SF-539; 13.6 µM (inactive) in the assay on SK-MEL-28; 7.14 µM (inactive) with SK-MEL-2; 17.7 µM (inactive) with SN12C; > 100 µM (inactive) in the assay with SNB-19. The GI50 with U-251 is 23 µM (inactive).
With `COC12C=CC(CC1)C(C)(C)C2OS(C)(=O)=O` (centres undefined), the GI50 with A549, in the assay on ACHN, with COLO 205, with DU-145, in the assay with KM12 and in the assay with MDA-MB-231 was > 100 µM (inactive) in each case. The GI50 in the assay on MDA-MB-435, in the assay on MOLT-4, in the assay with NCI-H226, with NCI-H23, with OVCAR-5 and in the assay with OVCAR-8 was > 100 µM (inactive) each time. The GI50 in the assay with SF-268, in the assay on SF-539, with SK-MEL-28, in the assay with SK-MEL-2, in the assay with SN12C and with SNB-19 was > 100 µM (inactive) throughout. In the assay with U-251, the GI50 is > 100 µM (inactive).
As for `C[N+](C)(C)CC(=O)N/N=C/c1ccncc1`, the GI50 with A549, in the assay with ACHN, in the assay on COLO 205, in the assay on DU-145, in the assay on KM12 and in the assay on MDA-MB-231 was > 100 µM (inactive) each time. The GI50 in the assay on MDA-MB-435, with MOLT-4, in the assay with NCI-H226, in the assay on NCI-H23, in the assay on OVCAR-5 and in the assay with OVCAR-8 was > 100 µM (inactive) each time. For the same compound, the GI50 with SF-268, with SF-539, in the assay with SK-MEL-28, in the assay with SK-MEL-2, in the assay with SN12C and with SNB-19 was > 100 µM (inactive) each time. The GI50 in the assay with U-251 is > 100 µM (inactive).
As for `COc1ccc(CCNC(=S)NC=C2C(=O)c3ccccc3C2=O)cc1OC`, the GI50 in the assay with A549 was > 100 µM (inactive); in the assay with ACHN, > 100 µM (inactive); in the assay on COLO 205 it was > 100 µM (inactive); in the assay with DU-145 it was > 100 µM (inactive); in the assay with KM12, > 100 µM (inactive); in the assay with MDA-MB-231, 68.1 µM (inactive). For the same compound, the GI50 was > 100 µM (inactive) in the assay with MDA-MB-435; 83.9 µM (inactive) in the assay on MOLT-4; > 100 µM (inactive) in the assay with NCI-H226; > 100 µM (inactive) in the assay on NCI-H23; > 100 µM (inactive) in the assay on OVCAR-5; > 100 µM (inactive) in the assay on OVCAR-8. Further, the GI50 in the assay on SF-268 was > 100 µM (inactive); with SF-539 it was 0.433 µM (active); in the assay with SK-MEL-28, > 100 µM (inactive); in the assay on SK-MEL-2 it was > 100 µM (inactive); in the assay with SN12C it was > 100 µM (inactive); in the assay on SNB-19, > 100 µM (inactive). In the assay with U-251, the GI50 was > 100 µM (inactive).
In the case of `Clc1ccc2[nH]c(CC3CCCC3)nc2c1`, the GI50 in the assay on A549 was 21.7 µM (inactive); in the assay with ACHN it was 17.1 µM (inactive); in the assay with COLO 205, 14.2 µM (inactive); in the assay on DU-145, 20.9 µM (inactive); in the assay on KM12 it was 14.5 µM (inactive); in the assay with MDA-MB-231 it was 17.7 µM (inactive). Also, the GI50 was 6.52 µM (inactive) in the assay with MDA-MB-435; 11 µM (inactive) in the assay with MOLT-4; 17.7 µM (inactive) with NCI-H226; 15.1 µM (inactive) in the assay with NCI-H23; 24.5 µM (inactive) in the assay on OVCAR-5; 25.6 µM (inactive) in the assay with OVCAR-8. Also, the GI50 with SF-268 is 19.3 µM (inactive); in the assay with SF-539, 21.4 µM (inactive); in the assay with SK-MEL-28, 22.8 µM (inactive); in the assay with SK-MEL-2, 17.9 µM (inactive); with SN12C, 16.9 µM (inactive); in the assay on SNB-19, 23.4 µM (inactive). For the same compound, the GI50 with U-251 was 17.6 µM (inactive).
For `O=C(O)CCSc1nnc(COc2ccc(Cl)cc2)n1-c1ccccc1`, the GI50 with A549, with ACHN, in the assay with COLO 205, with DU-145, with KM12 and with MDA-MB-231 was > 100 µM (inactive) in each case. The GI50 in the assay with MDA-MB-435, in the assay on MOLT-4, with NCI-H226, in the assay on NCI-H23, in the assay with OVCAR-5 and with OVCAR-8 was > 100 µM (inactive) each time. Also, the GI50 in the assay with SF-268, in the assay on SF-539, in the assay with SK-MEL-28, in the assay with SK-MEL-2, in the assay with SN12C and in the assay on SNB-19 was > 100 µM (inactive) each time. Besides, in the assay on U-251, the GI50 is > 100 µM (inactive).
On to `CCOC(=O)C1(CC(=O)O)CCCC1=O` (centres undefined), for which the GI50 in the assay on A549, in the assay with ACHN, with COLO 205, in the assay on DU-145, with KM12 and in the assay with MDA-MB-231 was > 100 µM (inactive) in each case. Besides, the GI50 with MDA-MB-435 is > 100 µM (inactive); in the assay with MOLT-4, 0.475 µM (active); in the assay with NCI-H226, > 100 µM (inactive); with NCI-H23, > 100 µM (inactive); in the assay on OVCAR-5, > 100 µM (inactive); in the assay on OVCAR-8 it was > 100 µM (inactive). Also, the GI50 in the assay on SF-268, with SF-539, with SK-MEL-28, with SK-MEL-2, with SN12C and with SNB-19 was > 100 µM (inactive) throughout. Moreover, the GI50 with U-251 is > 100 µM (inactive).
Regarding `c1ccc(CNc2c3c(nc4ccccc24)CCC3)cc1`, the GI50 in the assay with A549 was 15.1 µM (inactive); in the assay on ACHN, 17.5 µM (inactive); with COLO 205 it was 10.4 µM (inactive); with DU-145 it was 21.5 µM (inactive); in the assay with KM12 it was 15.6 µM (inactive); with MDA-MB-231, 12.9 µM (inactive). The GI50 is 15.3 µM (inactive) in the assay with MDA-MB-435; 13.1 µM (inactive) with MOLT-4; 17.1 µM (inactive) with NCI-H226; 16.3 µM (inactive) in the assay on NCI-H23; 15.5 µM (inactive) in the assay with OVCAR-5; 14.1 µM (inactive) with OVCAR-8. In addition, the GI50 in the assay with SF-268 is 21.7 µM (inactive); in the assay on SF-539 it was 14.5 µM (inactive); in the assay on SK-MEL-28 it was 11.8 µM (inactive); in the assay with SK-MEL-2, 13.8 µM (inactive); in the assay with SN12C it was 16.4 µM (inactive); in the assay on SNB-19, 23 µM (inactive). Also, the GI50 in the assay with U-251 was 14.9 µM (inactive).
For `O=C1CC2SC(COCc3ccccc3)(CCN2Cc2ccccc2)C1` (centres undefined), the GI50 in the assay on A549 was 51.2 µM (inactive); with ACHN it was 82.2 µM (inactive); in the assay with COLO 205, 39.1 µM (inactive); with DU-145 it was > 100 µM (inactive); in the assay on KM12, 52.2 µM (inactive); with MDA-MB-231, > 100 µM (inactive). For the same compound, the GI50 with MDA-MB-435 is 51.6 µM (inactive); with MOLT-4, 30.3 µM (inactive); in the assay with NCI-H226, 87.3 µM (inactive); with NCI-H23, 43.9 µM (inactive); with OVCAR-5 it was > 100 µM (inactive); in the assay on OVCAR-8, > 100 µM (inactive). Besides, the GI50 in the assay with SF-268, in the assay with SF-539, with SK-MEL-28, in the assay on SK-MEL-2, in the assay on SN12C and in the assay with SNB-19 was > 100 µM (inactive) throughout. Besides, in the assay with U-251, the GI50 is 66.8 µM (inactive).
For `CC(C)Nc1[nH]c(C(=O)c2ccccc2)c(N)c1C(=S)Nc1ccccc1`, the GI50 in the assay with A549 is 90.6 µM (inactive); in the assay with ACHN, 63.1 µM (inactive); with COLO 205, 28.1 µM (inactive); in the assay on DU-145, > 100 µM (inactive); with KM12 it was 31.7 µM (inactive); with MDA-MB-231, 28.5 µM (inactive). In addition, the GI50 with MDA-MB-435 is 30.8 µM (inactive); with MOLT-4, 80.9 µM (inactive); in the assay on NCI-H226, 41.3 µM (inactive); in the assay with NCI-H23, > 100 µM (inactive); with OVCAR-5 it was > 100 µM (inactive); in the assay with OVCAR-8, 84.7 µM (inactive). Moreover, the GI50 in the assay on SF-268 is 67.8 µM (inactive); in the assay on SF-539, > 100 µM (inactive); in the assay with SK-MEL-28, 17.4 µM (inactive); in the assay on SK-MEL-2, 23.8 µM (inactive); in the assay with SN12C, > 100 µM (inactive); in the assay with SNB-19, > 100 µM (inactive). Moreover, in the assay with U-251, the GI50 was 43.2 µM (inactive).

Values taken from ChEMBL document CHEMBL1201862, “PubChem BioAssay data set” (2004).
